Key:
[1] = test system: NGF-induced vascular hyper permeability; test: Inhibition of rat NGF-induced vascular hyper permeability; format: in vivo; details: po, 1 mg/kg orally, 14 h after administration, read-out: Inhibition rate of vascular hyper permeability (%) (time after administration (h))
Description: TrkA-inhibiting activity of the present compound was evaluted in vivo. The present compound dissolved in a medium was orally administered (adminstered volume: 5 mL/kg) to male CD(SD)IGS rats (7- to 9-week old, Charles River laboratories Japan, Inc.) shaved on the back. A medium was orally administered (adminstered volume: 5 mL/kg) to the control and normal groups. After 6, 12 or 14 hours of administration, 3 μg/mL of a NGF (Mouse 2.5s, Natural, Invitrogen) solution prepared in 0.1% BSA (Sigma-Aldrich)-containing saline was intracutaneously administered (dose; 50 μL/site) at 3 sites on the back of animals under halothane anesthesia. For the normal group, 0.1% BSA-containing saline was intracutaneously administered (dose; […]) at 3 sites on the back. Immediately after intracutaneous administration, 1% Evans Blue (Tokyo Chemical Industriy Co., Ltd.) was administered intravenously from tail (adminstered volume: 3 mL/kg). After 10 minutes of administration, the animals were sacrificed by bleeding due to incision of the abdominal aorta. The sites of intracutaneous administration on the back (3 sites) were excised and the skin samples were respectively transferred to the wells in a 48-well plate (Asahi Glass Co., Ltd.). Formamide (0.8 mL/well) was added to the plate and the plate was sealed and incubated overnight at 60° C. The formamide extraction solution (200 μL) was transferred to a 96-well plate and the absorbance (wavelength: 620 nm) of Evans Blue extracted in formamide was measured on an absorbance microplate reader (SpectraMAX 190, Molecular Devices Japan, K.K.). Standard samples of Evans Blue dissolved in formamide (0, 0.78, 1.56, 3.13, 6.25, 12.5, 25 and 50 µg/mL) were measured at the same time for the absorance (wavelength: 620 nm) to generate a calibration curve. Based on the calibration curve and the absorbances of samples, the concentrations of Evans Blue in the sample was calculated. The concentrations of Evans Blue for three skin samples collected from one aminal were averaged to obtain the vale for the animal. The rate of inhibition for rat NGF-induced vascular hyper permeability of the present compound was calculated according to the following Equation: Inhibition rate (%)={1−(AX−AN)/(AC−AN)}×100 [Eq. 3]
wherein AX: the concentration of Evans Blue of the test compound (an average value of 3 samples from one animal);
AN: the concentration of Evans Blue of the normal group (an average value of 3 samples from one animal);
AC: the concentration of Evans Blue of the control group (an average value of 3 samples from one animal).

[2] = target: human TrkA (Homo sapiens (Human), UniProt P04629); test: Measurement of TrkA kinase-inhibiting activity using human TrkA-expressing cells; format: cell-based; details: CHO-K1 cells expressing human TrkA and NFAT-bla; NGF 50 ng/ml; TR-FRET reporter
Chain of human TrkA (P04629 33-796): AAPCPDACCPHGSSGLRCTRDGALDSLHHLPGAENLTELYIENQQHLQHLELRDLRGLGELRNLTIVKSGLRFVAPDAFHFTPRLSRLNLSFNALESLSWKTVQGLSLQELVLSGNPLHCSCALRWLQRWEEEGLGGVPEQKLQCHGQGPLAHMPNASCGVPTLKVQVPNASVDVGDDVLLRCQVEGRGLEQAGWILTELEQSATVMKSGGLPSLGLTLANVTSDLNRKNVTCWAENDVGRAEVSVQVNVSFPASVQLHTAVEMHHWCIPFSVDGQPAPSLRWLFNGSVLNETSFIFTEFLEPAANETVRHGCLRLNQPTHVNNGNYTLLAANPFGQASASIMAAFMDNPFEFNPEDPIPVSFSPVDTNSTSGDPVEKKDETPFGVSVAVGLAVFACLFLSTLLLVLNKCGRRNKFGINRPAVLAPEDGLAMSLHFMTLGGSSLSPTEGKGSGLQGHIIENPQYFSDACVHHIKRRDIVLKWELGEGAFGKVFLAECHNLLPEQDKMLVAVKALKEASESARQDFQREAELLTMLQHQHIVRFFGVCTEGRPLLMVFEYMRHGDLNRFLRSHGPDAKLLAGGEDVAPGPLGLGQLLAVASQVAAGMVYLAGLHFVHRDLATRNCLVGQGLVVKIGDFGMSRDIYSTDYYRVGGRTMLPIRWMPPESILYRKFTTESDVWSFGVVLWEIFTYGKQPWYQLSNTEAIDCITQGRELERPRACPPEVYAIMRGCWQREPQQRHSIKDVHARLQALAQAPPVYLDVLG
Description: TrkA kinase-inhibiting activity in cell systems was measured using CHO-K1 cells exressing human TrkA and NFAT-bla (CellSenser™ TrkA-NFAT-bla CHO-K1 cells, Invitrogen).
On the day before the assay, CellSenser™ TrkA-NFAT-bla CHO-K1 cells were suspended in an assay medium (Opti-MEM1 Reduced Serum Medium (Invitrogen) containing 0.5% dialysed fetal bovine serum (Invitrogen), 0.1 mM nonessential amino acids (Invitrogen), 1 mM sodium pyruvate (Invitrogen) and antibiotics (100 U/mL penicillin and 100 µg/mL streptomycin (Invitrogen))) and plated at a density of 2.4×10^4 cells/40 μL/well in a 96-well clear bottom plate (Corning, Catalogue No.: 3882). In some wells were added only the assay medium at 40 μL/well (Cell-free). On the day of the assay, 10 mM of the present compound (DMSO solution) was distributed in a 96-well plate (Costar, Catalogue No.: 3363) and serially diluted with DMSO with the geometrical ratio of 3. The serial dilutions were diluted with the assay medium to 100-fold to prepare a solution of the present compound with a 10-fold concentration (DMSO concentration: 1%). To the plate where cells were plated was added the present compound at 5 µL/well and the plate was incubated in a CO2 incubator with 5% CO2, 95% Air at 37° C. for 30 minutes. For a control and a blank, the assay medium containing 1% DMSO was added at 5 µL/well in place of the solution of the present compound. Subsequently the assay medium containing NGF (Mouse 2.5s, Natural, Invitrogen) was added to the plate at 5 µL/well (final concentration of NGF: 50 ng/ml) and the plate was incubated in a CO2 incubator with 5% CO2, 95% Air at 37° C. for 5 hours. For the blank group, the assay medium was added in place of NGF at 5 µL/well. A reporter assay detection reagent ([…]) was added to the plate which was then incubated in the dark at room temperature for 120 minutes. The reporter assay detection reagent was prepared from LiveBLAzer™-FRET B/G Loading Kit (Invitrogen). On the Analyst GT (Molecular Devices Japan, K.K.) the wells were irradiated with excitation light at 405 nm and the fluorescence intensities at 460 nm and 530 nm were measured. The time resolved fluorescence resonance energy transfer (TR-FRET) ratio of each well was calculated according to the following Equation 1: TR-FRET ratio=(A460x−A460F)/(A530x−A530F) [Eq. 1]
A460x: the fluorescence intensity at 460 nm of the present compound, control or blank;
A460F: the fluorescence intensity at 460 nm of the Cell-free;
A530x: the fluorescence intensity at 530 nm of the present compound, control or blank; and
A530x: the fluorescence intensity at 530 nm of the Cell-free.
The TR-FRET inhibition rate (%) of the present compound was calculated according to the following Equation 2: Inhibition rate (%)={1−(AX−AB)/(AC−AB)}×100 [Eq. 2]
wherein AX: the TR-FRET ratio when the present compound is added;
AB: the TR-FRET of the blank; and
AC: the TR-FRET of the control.
The IC50 value by the present compound was calculated from the inhibition curve based on the inhibition rate of the present compound at respective concentrations.

Compound | IC50 [2] [µM] | inhibition in vivo at 1 mg/kg [1] [%]
Nc1ncc(Cl)cc1-c1ccc(Oc2ncc(NC(=O)Nc3cc(C(F)(F)F)ccc3Cl)cn2)cc1 [Example 8-4, 1-(2-(4-(2-amino-5-chloropyridin-3-yl)phenoxy)pyrimidin-5-yl)-3-(2-chloro-5-(trifluoromethyl)phenyl)urea] | 0.001 | 96
Cc1cn(-c2ccc(C(F)(F)F)cc2NC(=O)Nc2cnc(Oc3ccc(-c4cc(Cl)cnc4N)cc3)nc2)nn1 [Example 8-1, 1-(2-(4-(2-amino-5-chloropyridin-3-yl)phenoxy)pyrimidin-5-yl)-3-(2-(4-methyl-1H-1,2,3-triazol-1-yl)-5-(trifluoromethyl)phenyl)urea] | 0.001 | 94
Nc1ncc(Cl)cc1-c1ccc(Oc2ccc(NC(=O)Nc3cc(C(F)(F)F)ccc3-c3cccnc3)cn2)cc1 [Example 11, 1-(6-(4-(2-amino-5-chloropyridin-3-yl)phenoxy)pyridin-3-yl)-3-(2-(pyridin-3-yl)-5-(trifluoromethyl)phenyl)urea] | 0.001 | 100
Nc1ncc(C(F)(F)F)cc1-c1ccc(Oc2ncc(NC(=O)Nc3cc(C(F)(F)F)ccc3-n3ccc(C(F)(F)F)n3)cn2)cc1 [Example 15-52, 1-(2-{4-[2-amino-5-(trifluoromethyl)-3-pyridinyl]phenoxy}-5-pyrimidinyl)-3-{5-(trifluoromethyl)-2-[3-(trifluoromethyl)-1H-pyrazol-1-yl]phenyl}urea] | 0.004 | 96
Nc1ncc(Cl)cc1-c1ccc(Oc2ncc(NC(=O)Nc3cc(Cl)ccc3-n3ccc(C(F)(F)F)n3)cn2)cc1 [Example 15-71, 1-{2-[4-(2-amino-5-chloro-3-pyridinyl)phenoxy]-5-pyrimidinyl}-3-{5-chloro-2-[3-(trifluoromethyl)-1H-pyrazol-1-yl]phenyl}urea] | 0.002 | 100
CN(C)S(=O)(=O)c1ccc(C(F)(F)F)cc1NC(=O)Nc1cnc(Oc2ccc(-c3cc(C(F)(F)F)cnc3N)cc2)nc1 [Example 15-105, 2-{[(2-{4-[2-amino-5-(trifluoromethyl)-3-pyridinyl]phenoxy}-5-pyrimidinyl)carbamoyl]amino}-N,N-dimethyl-4-(trifluoromethyl)benzenesulfonamide] | 0.004 | 100
Cn1nccc1-c1ccc(C(F)(F)F)cc1NC(=O)Nc1cnc(Oc2ccc(-c3cc(Cl)cnc3N)cc2)nc1 [Example 13-1, 1-(2-(4-(2-amino-5-chloropyridin-3-yl)phenoxy)pyrimidin-5-yl)-3-(2-(1-methyl-1H-pyrazol-5-yl)-5-(trifluoromethyl)phenyl)urea] | 0.002 | 100
CS(=O)(=O)c1ccc(C(F)(F)F)cc1NC(=O)Nc1cnc(Oc2ccc(-c3cc(F)cnc3N)cc2)nc1 [Example 15-96, 1-{2-[4-(2-amino-5-fluoro-3-pyridinyl)phenoxy]-5-pyrimidinyl}-3-[2-(methylsulfonyl)-5-(trifluoromethyl)phenyl]urea] | 0.0004 | 90
Nc1ncc(Cl)cc1-c1ccc(Oc2ncc(NC(=O)Nc3ccc(C(F)(F)F)cc3Cl)cn2)cc1 [Example 15-6, 1-(2-(4-(2-amino-5-chloropyridin-3-yl)phenoxy)pyrimidin-5-yl)-3-(2-chloro-4-(trifluoromethyl)phenyl)urea] | 0.002 | 95

The next lines start with results.

IC50 [2] [µM] | Compound | inhibition in vivo at 1 mg/kg [1] [%]
0.002 | CN(C)c1ccn2ncc(-c3ccc(Oc4ncc(NC(=O)Nc5cc(C(F)(F)F)ccc5-c5ccccc5)cn4)cc3)c2n1 [Example 21-70, 1-(2-{4-[5-(dimethylamino)pyrazolo[1,5-a]pyrimidin-3-yl]phenoxy}-5-pyrimidinyl)-3-[4-(trifluoromethyl)-2-biphenylyl]urea] | 100
0.001 | COc1ccc2ncc(-c3ccc(Oc4ncc(NC(=O)Nc5cc(C(F)(F)F)ccc5-n5cccn5)cn4)cc3)n2n1 [Example 22-9, 1-(2-(1H-pyrazol-1-yl)-5-(trifluoromethyl)phenyl)-3-(2-(4-(6-methoxyimidazo[1,2-b]pyridazin-3-yl)phenoxy)pyrimidin-5-yl)urea] | 100
0.003 | Cc1cccc(-c2ccc(C(F)(F)F)cc2NC(=O)Nc2cnc(Oc3ccc(-c4cnn5ccc(N(C)C)nc45)cc3)nc2)c1 [Example 21-73, 1-(2-{4-[5-(dimethylamino)pyrazolo[1,5-a]pyrimidin-3-yl]phenoxy}-5-pyrimidinyl)-3-[3′-methyl-4-(trifluoromethyl)-2-biphenylyl]urea] | 92
0.0007 | Cc1ccn2ncc(-c3ccc(Oc4ncc(NC(=O)Nc5cc(C(F)(F)F)ccc5-c5cccnc5)cn4)cc3)c2n1 [Example 21-65, 1-{2-[4-(5-methylpyrazolo[1,5-a]pyrimidin-3-yl)phenoxy]-5-pyrimidinyl}-3-[2-(3-pyridinyl)-5-(trifluoromethyl)phenyl]urea] | 92
0.001 | COc1ccc2ncc(-c3ccc(Oc4ncc(NC(=O)Nc5cc(C(F)(F)F)ccc5-c5cccnc5)cn4)cc3)n2n1 [Example 22-8, 1-(2-(4-(6-methoxyimidazo[1,2-b]pyridazin-3-yl)phenoxy)pyrimidin-5-yl)-3-(2-(pyridin-3-yl)-5-(trifluoromethyl)phenyl)urea] | 100
0.004 | CCNc1ccn2ncc(-c3ccc(Oc4ncc(NC(=O)Nc5cc(C(F)(F)F)ccc5-c5cccc(C)c5)cn4)cc3)c2n1 [Example 21-67, 1-(2-{4-[5-(ethylamino)pyrazolo[1,5-a]pyrimidin-3-yl]phenoxy}-5-pyrimidinyl)-3-[3′-methyl-4-(trifluoromethyl)-2-biphenylyl]urea] | 90
0.001 | CN(C)c1ccn2ncc(-c3ccc(Oc4ncc(NC(=O)Nc5cc(C(F)(F)F)ccc5-c5cccnc5)cn4)cc3)c2n1 [Example 21-37, 1-(2-{4-[5-(dimethylamino)pyrazolo[1,5-a]pyrimidin-3-yl]phenoxy}-5-pyrimidinyl)-3-[2-(3-pyridinyl)-5-(trifluoromethyl)phenyl]urea] | 98
